Source: PubChem BioAssay (NCI)
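48-hour exposure; five concentrations; linearly interpolated endpoints. TGI: total growth inhibition.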

Experiments:
Assay in all cases: growth of human tumour cells (NCI), 48 h
[1] = tested on: BT-549 breast
[2] = tested on: DU-145 prostate
[3] = tested on: HCC-2998 colon
[4] = tested on: HCT-116 colon
[5] = tested on: LOX IMVI melanoma
[6] = tested on: MCF7 breast
[7] = tested on: MDA-N
[8] = tested on: OVCAR-3 ovarian
[9] = tested on: UACC-257 melanoma
[10] = tested on: M14 melanoma
[11] = tested on: SK-MEL-2 melanoma

| SMILES | TGI [1] [µM] | TGI [2] [µM] | TGI [3] [µM] | TGI [4] [µM] | TGI [5] [µM] | TGI [6] [µM] | TGI [7] [µM] | TGI [8] [µM] | TGI [9] [µM] | TGI [10] [µM] | TGI [11] [µM] |
| --- | --- | --- | --- | --- | --- | --- | --- | --- | --- | --- | --- |
| NC(Cc1ccc(O)cn1)C(=O)NC(C(=O)O)c1ccccc1 (centres undefined) | > 100 | > 100 | > 100 | > 100 | > 100 | > 100 | > 100 | > 100 | > 100 | – | – |
| C/C=C1\CC(C(=O)OCC)CCCCCCC1=O (centres undefined) | > 100 | > 100 | – | > 100 | > 100 | > 100 | > 100 | – | > 100 | > 100 | > 100 |
| Clc1ccc(Nc2ncco2)cc1Cl | > 10 | > 10 | > 10 | > 10 | > 10 | > 10 | > 10 | > 10 | > 10 | > 10 | – |
| CN(C)c1ccc(/C=C/C(=O)c2cc(C(C)(C)C)c(O)c(C(C)(C)C)c2)cc1 | > 100 | 6.8 | 3.67 | 24.4 | > 100 | > 100 | 0.69 | – | – | > 51.7 | > 100 |
| Cc1cc(OCc2nc(N)nc(N)c2-c2ccc(Cl)c(Cl)c2)ccc1[N+](=O)[O-] | 12.2 | > 65 | – | 16 | 37.8 | 8.15 | 22.9 | 3.29 | 3.28 | 10.7 | 15.1 |
| COc1ccc(-c2nc(-c3ccc(OC)cc3)n(-c3ccccc3)n2)cc1 | > 100 | > 100 | – | > 100 | > 100 | > 100 | > 100 | > 100 | > 100 | > 100 | > 100 |
| CCOC(=O)Oc1cc2ccsc2c2c1c1ccccc1n2C(=O)OCC | > 100 | > 100 | – | > 100 | > 100 | > 100 | > 100 | > 100 | > 100 | > 100 | > 100 |
| C=C1CC[C@@]2(C)[C@@H]([C@@H]1C)[C@H]1CC[C@@H]3[C@@]4(C)CC[C@H](O)C(C)(C)[C@@H]4CC[C@@]3(C)[C@]1(C)C[C@@H]2O | 34.6 | 17.5 | – | > 23.9 | 3.47 | 9.23 | > 51.5 | 16.1 | 31.3 | 32.7 | 12.7 |
| CN1C(=O)N(C)C2(CCN(CC(CC3OCCO3)c3ccc(F)cc3)CC2)C1=O (centres undefined) | > 100 | > 100 | – | > 100 | > 100 | > 100 | > 100 | > 100 | > 100 | > 100 | > 100 |
| N/C(=N\N=C\c1cc2ccccc2s1)c1cnccn1 | > 100 | > 100 | – | > 100 | > 100 | > 100 | > 100 | > 100 | > 100 | > 100 | > 100 |
| CCOC(=O)c1c(N2CCCC2)[nH]c(=O)c(C(c2c(O)c(C(=O)OCC)c(N3CCCC3)[nH]c2=O)C(C)C)c1O | > 100 | > 100 | > 100 | > 100 | > 100 | > 100 | > 100 | > 100 | > 100 | > 100 | – |
| O=C(Nc1ccccc1)c1cc2ccccc2c(N=Nc2cccc([N+](=O)[O-])c2)c1O | > 100 | > 100 | > 100 | > 100 | – | > 100 | > 100 | > 100 | > 100 | > 100 | > 100 |
| CC(=O)Nc1ccc(NC(=O)CC(=O)Nc2ccc(NC(C)=O)cc2)cc1 | > 100 | > 100 | 36.7 | > 100 | > 100 | > 100 | > 100 | > 100 | > 100 | > 100 | – |
| CN(C)CCCNC(=O)N/N=C/c1ccc(O)cc1 | > 100 | > 100 | > 100 | > 100 | – | > 100 | > 100 | > 100 | > 100 | > 100 | > 100 |
| CN(C(=O)[C@H](NC(=O)OCc1ccccc1)c1ccccc1)C1CCCCC1N1CCCC1 (some centres undefined) | > 100 | > 100 | – | > 100 | > 100 | > 100 | > 100 | > 100 | 63.2 | 56.4 | > 100 |
| COC(CNC(=O)CNC(=O)c1ccc(C(F)(F)F)cc1)OC | > 100 | > 100 | – | > 100 | – | > 100 | > 100 | – | > 100 | > 100 | > 100 |
| COc1ccc2[nH]c3cc4c(=O)c5cc(OC)ccc5[nH]c4cc3c(=O)c2c1 | > 100 | > 100 | > 100 | > 100 | – | > 100 | > 100 | > 100 | > 100 | > 100 | > 100 |
| CC(=N/NC(=S)N1CCCCCC1)/C(C)=N\NC(=S)N1CCCCCC1 | 11 | 8.66 | 18.6 | > 20.8 | – | > 25.1 | > 100 | 14.3 | 13.7 | 57.9 | – |
